Values quoted from earlier work, collected in patent publication US20250302767A1, “TREATMENT OF CANCER AND AUTOIMMUNE DISORDERS USING NANO POLYMERS OF HISTONE DEACETYLASE INHIBITORS” (University of Virginia Patent Foundation, priority 2021, published 2025).

Columns and labels:
PTCL = details: patients with PTCL, single agent, cited from earlier work; for Outcomes: ORR: pivotal trial cited per drug (romidepsin: trial (6) Coiffier et al., 2014); for Outcomes: CR / Outcomes: DOR: pivotal trial cited per drug (romidepsin: trial (6))
ALCL = details: patients with ALCL, pivotal trials (3, 4); cited from earlier work

| Compound | Outcomes: ORR (PTCL) [%] | Outcomes: CR (PTCL) [%] | Outcomes: DOR (PTCL) [months] | Outcomes: CR (ALCL) [%] | Outcomes: DOR (ALCL) [months] | Outcomes: ORR (ALCL) [%] |
| --- | --- | --- | --- | --- | --- | --- |
| O=C(/C=C/c1cccc(S(=O)(=O)Nc2ccccc2)c1)NO [Belinostat] | 26 | 11 | 13.6 |  |  |  |
| Nc1cc(F)ccc1NC(=O)c1ccc(CNC(=O)/C=C/c2cccnc2)cc1 [Chidamide, N-(2-Amino-4-fluorophenyl)-4-[[[(E)-3-pyridin-3-ylprop-2-enoyl]amino]methyl]benzamide] | 28 | 14 | 9.9 |  |  |  |
| C#CCC(Cc1cnc2nc(N)nc(N)c2n1)c1ccc(C(=O)N[C@@H](CCC(=O)O)C(=O)O)cc1 (stereo partly drawn) [Pralatrexate] | 29 | 11 | 10.1 |  |  |  |
| Brentuximab vedotin |  |  |  | 57 | 13.2 | 86 |
